One data set deals with HIV. In words: Inhibition of HIV-induced cytopathic effect in MT-4 cells (MTT). Conditions: for EC50: Human immunodeficiency virus 1, MT4, dose achieving 50% protection of HIV-infected MT-4 cells, MTT, 540 nm, read-out: ED50 (50% effective dose); for SI (selectivity index): ratio of CD50 to ED50. Format: cell-based. As for the experimental part:
(§1) A rapid, sensitive and automated assay procedure was used for the in-vitro evaluation of anti-HIV agents. An […] T4-cell line, MT-4, which was previously shown (Koyanagi et al., Int. J. Cancer, 36, 445-451, 1985) to be highly susceptible to and permissive for HIV infection, served as the target cell line. Inhibition of the HIV-induced cytopathic effect was used as the end point. The viability of both HIV- and mock-infected cells was assessed spectrophotometrically via the in-situ reduction of 3-(4,5-dimethylthiazol-2-yl)-2,5-diphenyltetrazolium bromide (MTT). The 50% cytotoxic dose (CD50 in µg/ml) was defined as the concentration of compound that reduced the absorbance of the mock-infected control sample by 50%. The percent protection achieved by the compound in HIV-infected cells was calculated by the following formula: ((ODT )HIV - (ODC )HIV)/((ODC )MOCK - (ODC )HIV) [formula] expressed in %, whereby (ODT)HIV is the optical density measured with a given concentration of the test compound in HIV-infected cells; (ODC)HIV is the optical density measured for the control untreated HIV-infected cells; (ODC)MOCK is the optical density measured for the control untreated mock-infected cells; all optical density values were determined at 540 nm. The dose achieving 50% protection according to the above formula was defined as the 50% effective dose (ED50 in µg/ml). The ratio of CD50 to ED50 was defined as the selectivity index (SI).
(Damage to the host cells serves as the signal in cytopathic effect assays.)

Another data set is described as follows: in vitro. Format: cell-based. The conditions noted are these: human, mt-4 cells. As for the experimental part:
as §1

≈ marks a conversion by molar mass, not a printed value.

Take `CCC(=CCN1Cc2cc(Cl)cc3[nH]c(=O)n(c23)C[C@@H]1C)CC` [compound 2]: in the data set with HIV, the EC50 stood at 0.032 µg/mL (≈ 0.0958 µM) and the “SI (selectivity index)” value is reported as over 312. Besides, in the data set “in vitro”, the CC50 is over 10 µg/mL.
On the same counts, the results for `CCC(=CCN1Cc2c(C)ccc3[nH]c(=O)n(c23)C[C@@H]1C)CC` [compound 5, (+)-(S)-6-(3-ethyl-2-pentenyl)-4,5,6,7-tetrahydro-5,8-dimethylimidazo-[4,5,1-jk][1,4]benzodiazepin-2(1H)-one] are 0.038 µg/mL (≈ 0.121 µM), 370 and 14.3 µg/mL (≈ 45.6 µM).
Consider `CCC(=CCN1Cc2cc(Cl)cc3[nH]c(=S)n(c23)C[C@@H]1C)CC.Cl` [compound 7, (-)-(S)-9-chloro-6-(3-ethyl-2-pentenyl)-4,5,6,7-tetrahydro-5-methylimidazo[4,5,1-jk][1,4]benzodiazepine-2(1H)-thione monohydrochloride], for which, in the data set on HIV, the EC50 is 0.006 µg/mL and the “SI (selectivity index)” value was determined as 850. In the data set “in vitro”, this compound had a CC50 of 5.2 µg/mL.

As a reminder, the CC50 is the concentration at which the toxic effect on the cells reaches its halfway point.
